Data published in patent US10537127B2, “Organic compounds” (GIVAUDAN SA, priority 2013, dated 2020).

Experiment: Beef bouillon taste evaluation by a panel of experienced tasters
Conditions: 40 ppb dosed to beef bouillon made from bouillon cubes; versus reference bouillon
Protocol: A beef bouillon was prepared using bouillon cubes obtained from a local supermarket.

O=C(O)CCCCCCCC(=O)N1CCCC1C(=O)O (stereo not drawn) [Example 2, 1-(8-Carboxyoctanoyl)pyrrolidine-2-carboxylic acid]
taste of the bouillon compared with the reference (panel agreement): more salt impact, and more umami taste than the reference

O=C(O)CCCCCCCC(=O)NC(Cc1c[nH]c2ccccc12)C(=O)O (stereo not drawn) [Example 1, 9-((1-Carboxy-2-(1H-indol-3-yl)ethyl)amino)-9-oxononanoic acid]
taste of the bouillon compared with the reference (panel agreement): more umami, more salty and more full than the reference

O=C(O)CCCCCCCC(=O)NCCCC(=O)O [Example 3, 9-((3-Carboxypropyl)amino)-9-oxononanoic acid]
taste of the bouillon compared with the reference (panel agreement): more salty and had more “bite” than the reference
